Measured values published in PubChem BioAssay (NCI).
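1) Cells in 96-well plates. 2) Compound, 48 h, 5 concentrations. 3) Linear interpolation between surrounding doses. 4) Unreached endpoint = highest concentration. GI50 = concentration required for 50% inhibition of growth. TGI denotes the concentration required for complete inhibition of growth.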

Tests used:
Assay in all cases: growth of human tumour cells (NCI), 48 h
[1] = test system: 786-0 renal
[2] = test system: ACHN renal
[3] = test system: HL-60(TB) leukemia
[4] = test system: IGROV1 ovarian
[5] = test system: MDA-MB-435
[6] = test system: OVCAR-3 ovarian
[7] = test system: OVCAR-5 ovarian
[8] = test system: SK-OV-3 ovarian
[9] = test system: UO-31 renal
[10] = test system: HCC-2998 colon

COc1cc([N+](=O)[O-])ccc1NC(=O)C(F)(F)F
TGI [1]: > 100 µM | TGI [2]: > 100 µM | TGI [3]: > 100 µM | TGI [4]: > 100 µM | TGI [5]: > 100 µM | TGI [6]: > 100 µM | TGI [7]: > 100 µM | TGI [8]: > 100 µM | TGI [9]: > 100 µM

COC(=O)C(=O)C(C(=O)C(=O)Nc1ccc(C)cc1C)c1nc2ccccc2[nH]c1=O (stereo unspecified)
TGI [1]: > 100 µM | TGI [2]: > 100 µM | TGI [10]: > 100 µM | TGI [3]: > 100 µM | TGI [4]: > 100 µM | TGI [6]: > 100 µM | TGI [7]: > 100 µM | TGI [8]: > 100 µM | TGI [9]: > 100 µM

CCc1cccc(C)c1NC(C)=O
TGI [1]: > 100 µM | TGI [2]: > 100 µM | TGI [10]: > 100 µM | TGI [3]: > 100 µM | TGI [4]: > 100 µM | TGI [6]: > 100 µM | TGI [7]: > 100 µM | TGI [8]: > 100 µM | TGI [9]: > 100 µM

COC(=O)C(=O)C(C(=O)C=C(C)C)C(=O)C(=O)Nc1ccc(Cl)cc1C (stereo unspecified)
TGI [1]: > 100 µM | TGI [2]: > 100 µM | TGI [10]: > 100 µM | TGI [3]: > 100 µM | TGI [4]: > 100 µM | TGI [6]: > 100 µM | TGI [7]: > 100 µM | TGI [8]: > 100 µM | TGI [9]: > 100 µM

CC(C)CC(N)C(=O)O (stereo unspecified)
TGI [1]: > 100 µM | TGI [2]: > 100 µM | TGI [3]: > 100 µM | TGI [4]: > 100 µM | TGI [5]: > 100 µM | TGI [6]: > 100 µM | TGI [8]: > 100 µM | TGI [9]: > 100 µM

Cc1cc(NS(=O)(=O)c2ccc(NC(=O)c3cccc4c(=O)c5ccccc5[nH]c34)cc2)no1
TGI [1]: 38.2 µM | TGI [2]: > 100 µM | TGI [10]: > 100 µM | TGI [3]: 74.6 µM | TGI [4]: > 100 µM | TGI [6]: 95.5 µM | TGI [7]: > 100 µM | TGI [8]: 72.7 µM | TGI [9]: 72.8 µM

Cc1ccc(N=NC(C(=O)c2ccccc2)C(=O)c2ccccc2)cc1
TGI [1]: 40 µM | TGI [2]: > 100 µM | TGI [10]: > 100 µM | TGI [3]: 33.7 µM | TGI [4]: > 100 µM | TGI [6]: > 100 µM | TGI [7]: 58 µM | TGI [8]: 96 µM | TGI [9]: 44.4 µM

CC(=O)SCCC1c2[nH]c3ccccc3c2CCN1O (stereo unspecified)
TGI [1]: > 100 µM | TGI [2]: > 100 µM | TGI [10]: > 100 µM | TGI [3]: > 100 µM | TGI [4]: > 100 µM | TGI [6]: > 100 µM | TGI [7]: > 100 µM | TGI [8]: > 100 µM | TGI [9]: > 100 µM

CC(C)(C)OC(=O)N(CCCN(CCn1c2c(c3ccccc3c1=O)C(=O)c1ccccc1-2)C(=O)OC(C)(C)C)CCn1c2c(c3ccccc3c1=O)C(=O)c1ccccc1-2
GI50 [1]: 16.5 µM | TGI [1]: > 50 µM | GI50 [2]: 14500 nM | TGI [2]: > 50 µM | GI50 [3]: 14.1 µM | TGI [3]: > 50 µM | GI50 [4]: 34.5 µM | TGI [4]: > 50 µM | GI50 [5]: > 50000 nM | TGI [5]: > 50 µM | GI50 [6]: 21.2 µM | TGI [6]: > 50 µM | GI50 [7]: > 50000 nM | TGI [7]: > 50 µM | GI50 [8]: > 50 µM | TGI [8]: > 50 µM | GI50 [9]: > 50000 nM | TGI [9]: > 50 µM

Cc1cccc(N2C(=O)C(Cl)=C(Cl)C2=O)c1
TGI [1]: > 87.5 µM | TGI [2]: > 74.6 µM | TGI [10]: > 100 µM | TGI [3]: > 100 µM | TGI [4]: > 100 µM | TGI [6]: > 80.5 µM | TGI [7]: > 100 µM | TGI [8]: > 100 µM | TGI [9]: > 100 µM

CCCCn1c(-c2ccc(C(=O)O/N=C(\N)c3ccc(OC)cc3)cc2)nc(-c2ccccc2)c1-c1ccccc1
GI50 [1]: 0.538 µM | TGI [1]: 1.91 µM | GI50 [2]: 599 nM | TGI [2]: 1.85 µM | GI50 [4]: 0.334 µM | TGI [4]: 1.16 µM | GI50 [5]: 1740 nM | TGI [5]: 3.28 µM | GI50 [7]: 2350 nM | TGI [7]: > 100 µM | GI50 [8]: 3.76 µM | TGI [8]: > 100 µM | GI50 [9]: 458 nM | TGI [9]: 1.65 µM

Cc1ccc(NC(=O)C2C(=O)N(c3ccc(C)c(C)c3)C(=O)/C2=N/O)cc1C (stereo unspecified)
TGI [1]: > 100 µM | TGI [2]: > 100 µM | TGI [10]: > 100 µM | TGI [3]: > 100 µM | TGI [4]: > 100 µM | TGI [6]: > 100 µM | TGI [7]: > 100 µM | TGI [8]: > 100 µM | TGI [9]: > 100 µM

C[C@]12CC[C@@H]3c4ccc(O)cc4CC[C@H]3[C@@H]1CC[C@@H]2NS(=O)(=O)c1ccc(C(F)(F)F)cc1
GI50 [1]: 1.95 µM | TGI [1]: 3.77 µM | GI50 [2]: 1630 nM | TGI [2]: 3.06 µM | GI50 [10]: 2110 nM | TGI [10]: 4.37 µM | GI50 [4]: 2.45 µM | TGI [4]: 6.23 µM | GI50 [5]: 2120 nM | TGI [5]: 5 µM | GI50 [7]: 1700 nM | TGI [7]: 3.26 µM | GI50 [8]: 2.53 µM | TGI [8]: 6.21 µM | GI50 [9]: 1600 nM | TGI [9]: 3.43 µM

O=C(CC(=O)N1N=C(c2ccccc2)C(N=Nc2ccc(Cl)cc2)C1=O)Nc1ccccc1Cl (stereo unspecified)
TGI [1]: 26 µM | TGI [2]: 48.8 µM | TGI [10]: > 100 µM | TGI [3]: > 100 µM | TGI [4]: > 100 µM | TGI [6]: 71.4 µM | TGI [7]: > 100 µM | TGI [8]: 40.4 µM | TGI [9]: 78 µM

COC(=O)c1cc2c(c(C(=O)OC)c1O)C(=O)C=CC2=O
GI50 [1]: > 9.1 µM | TGI [1]: > 56.1 µM | GI50 [2]: > 9100 nM | TGI [2]: > 46.3 µM | GI50 [10]: > 9100 nM | TGI [10]: > 57.4 µM | TGI [3]: > 24.4 µM | GI50 [4]: > 9.1 µM | TGI [4]: > 58.6 µM | GI50 [6]: > 9.1 µM | TGI [6]: > 60.9 µM | TGI [7]: > 54.6 µM | GI50 [8]: > 9.1 µM | TGI [8]: > 100 µM | GI50 [9]: > 9100 nM | TGI [9]: > 56.9 µM

C[C@]12CC[C@@H]3c4ccc(Oc5nc(N6CC6)nc(N6CC6)n5)cc4CC[C@H]3[C@@H]1CCC2=O
GI50 [1]: 3.41 µM | TGI [1]: 22.3 µM | GI50 [2]: 1130 nM | TGI [2]: 13 µM | GI50 [3]: 0.529 µM | TGI [3]: 3.26 µM | GI50 [4]: 3.3 µM | TGI [4]: 22.2 µM | GI50 [5]: 5430 nM | TGI [5]: 22 µM | GI50 [6]: 3.86 µM | TGI [6]: 15.3 µM | GI50 [7]: 12100 nM | TGI [7]: 30.2 µM | GI50 [8]: 3.31 µM | TGI [8]: 13.9 µM | GI50 [9]: 2680 nM | TGI [9]: 13.2 µM

Nc1c(-c2ccc(Br)cc2)[n+]([O-])c2ccccc2[n+]1[O-]
TGI [1]: > 100 µM | TGI [2]: > 100 µM | TGI [3]: > 100 µM | TGI [4]: > 100 µM | TGI [6]: > 100 µM | TGI [7]: > 100 µM | TGI [8]: > 100 µM | TGI [9]: > 100 µM

O=C(/C=C/c1ccccc1Cl)c1ccccc1Cl
TGI [1]: 28.8 µM | TGI [2]: 31.1 µM | TGI [10]: 39.1 µM | TGI [3]: 47.1 µM | TGI [4]: 33.3 µM | TGI [6]: 33.9 µM | TGI [7]: 46.4 µM | TGI [8]: > 100 µM | TGI [9]: 34.3 µM

CN(C)C(=S)/N=c1\ss/c(=N\C(=S)N(C)C)n1-c1ccc2c(c1)OCO2
TGI [1]: > 100 µM | TGI [2]: > 100 µM | TGI [10]: > 100 µM | TGI [3]: > 100 µM | TGI [4]: > 100 µM | TGI [6]: > 100 µM | TGI [7]: > 100 µM | TGI [8]: > 100 µM | TGI [9]: > 100 µM
